Assay results: publication PMC7601404, “Enzymes Involved in the Biosynthesis of Arginine from Ornithine in Maritime Pine (Pinus pinaster Ait.)” (Plants, 2020)
Like-named read-outs stand apart in the source and are kept apart here.

Tests used:
PpASSY [1] = test system: T1, PpASSY; experiment: PPi release, molybdate/ascorbate assay, […] nm; type: biochemical, Pinus pinaster; conditions: 50 mM Tris-HCl pH 8, 25 °C, citrulline, aspartate, 3 mM ATP, 10 mM MgCl2, substrates above Km; partial inhibition
T1 construct: gene ASSY; mature form without predicted chloroplast transit peptide (TargetP-2.0, WoLF PSORT); N-terminal 6xHis (pDEST17), tag kept; E. coli; cloned cDNA 1218 nt

PpOTC [2] = test system: T2, PpOTC; experiment: phosphomolybdate Pi release assay, […] nm; type: biochemical, Pinus pinaster; conditions: 50 mM Tris-HCl pH 8.0, 25 °C, ornithine + carbamoyl-P above Km
T2 construct: gene OTC; mature form without predicted chloroplast transit peptide (TargetP-2.0, WoLF PSORT); N-terminal 6xHis (pDEST17), tag kept; E. coli; cloned cDNA 984 nt

PpASL [3] = test system: T3, PpASL; experiment: fumarate absorbance at […] nm; type: biochemical, Pinus pinaster; conditions: 50 mM Tris-HCl pH 8, 25 °C
T3 construct: gene ASL; mature form without predicted chloroplast transit peptide (TargetP-2.0, WoLF PSORT); N-terminal 6xHis (pDEST17), tag kept; E. coli; cloned cDNA 1398 nt

PpASSY [4] = test system: T1, PpASSY; experiment: PPi release, molybdate/ascorbate assay, […] nm; type: biochemical, Pinus pinaster; conditions: 50 mM Tris-HCl pH 8, 25 °C, 3 mM ATP, 10 mM MgCl2
PpOTC [5] = test system: T2, PpOTC; experiment: phosphomolybdate Pi release assay, […] nm; allosteric sigmoidal fit; type: biochemical, Pinus pinaster; conditions: 50 mM Tris-HCl pH 8.0, 25 °C, read-out: S0.5
PpASL [6] = test system: T3, PpASL; experiment: fumarate absorbance at […] nm; type: biochemical, Pinus pinaster; conditions: 50 mM Tris-HCl pH 8, 25 °C, argininosuccinate above Km
[7] = target: recombinant Pinus pinaster argininosuccinate lyase (PpASL) (Pinus pinaster); experiment: SEC; desalted purified recombinant enzymes loaded separately on an ENrich SEC 650 column calibrated with protein standards (29-669 kDa); holoenzyme mass from the partition coefficient (Kav); elution followed at 280 nm and confirmed by western blot
[8] = target: recombinant Pinus pinaster argininosuccinate synthetase (PpASSY) (Pinus pinaster); experiment: as above
[9] = target: recombinant Pinus pinaster ornithine transcarbamylase (PpOTC) (Pinus pinaster); experiment: as above

Compound: N=C(N)NCCC[C@H](N)C(=O)O [arginine]
- IC50 (PpASSY [1]): 1.94 mM
- IC50 (PpOTC [2]; negative allosteric): 10.3 mM

Compound: N=C(NCCC[C@H](N)C(=O)O)N[C@@H](CC(=O)O)C(=O)O [argininosuccinate]
- Km (PpASL [3]): 220 ± 30 µM

Compound: N[C@@H](CC(=O)O)C(=O)O [aspartate]
- Km (PpASSY [4]; 2 mM citrulline): 120 ± 50 µM

Compound: NC(=O)OP(=O)(O)O [carbamoyl-P]
- Km (PpOTC [5]; ornithine co-substrate, negative cooperativity): 3480 ± 1400 µM

Compound: NC(=O)NCCC[C@H](N)C(=O)O [citrulline]
- Km (PpASSY [4]; 2 mM aspartate): 120 ± 30 µM

Compound: NCCC[C@H](N)C(=O)O [ornithine]
- Km (PpOTC [5]; carbamoyl-P co-substrate (5 mM), positive cooperativity): 1280 ± 160 µM

Compound: NCCCCNCCCN [spermidine]
- IC50 (PpASL [6]): 4.97 mM

Compound: NCCCNCCCCNCCCN [spermine]
- IC50 (PpASL [6]): 19.2 mM

Compound: CC(C)[C@H](N)C(=O)O [valine]
- IC50 (PpOTC [2]): 7.19 mM

Compound: recombinant Pinus pinaster argininosuccinate lyase (PpASL) (enzyme)
- stoichiometry N [7]: 4

Compound: recombinant Pinus pinaster argininosuccinate synthetase (PpASSY) (enzyme)
- stoichiometry N [8]: 4

Compound: recombinant Pinus pinaster ornithine transcarbamylase (PpOTC) (enzyme)
- stoichiometry N [9]: 3
